Laboratory results taken from patent publication US11491132B2, “Methods for treating thrombocytopenia” (Enzychem Lifesciences Corporation, priority 2014, dated 2022).

Key:
[1] = test system: neutrophils, platelets, Complement 3; assay: Chemotherapy-induced neutropenia and thrombocytopenia (CIN) animal model; format: in vivo, mice
Method: The effect of PLAG for treatment of neutropenia and thrombocytopenia induced by chemotherapy (CIN) is evaluated in an animal model. Anti-cancer agents (Gemcitabine 50 mg/kg, Cyclosphosphamide […], or Tamoxifen 50 mg/kg) are dosed daily for 3 weeks; PLAG is also administered 50 mg/kg daily for 3 weeks. After three weeks, neutrophils are harvested and counted with Auto Hematology Analyzer BC-5300.
It is believed that the neutropenia and thrombocytopenia of these agents and other chemotherapeutic agents may be due at least in part to a specific complement-mediated toxicity. This is seen in FIG. 6.

[2] = test system: platelets and neutrophils; assay: Pilot study: thrombocytopenia and neutropenia in pancreatic cancer patients receiving chemotherapy; format: in vivo, human; conditions: 16 patients
Method: PLAG is administered to sixteen pancreatic cancer patients after chemotherapy. The subjects of this study are unoperable pancreatic cancer patients with ECOG (Eastern Cooperative Oncology Group) performance status of “0” or “1”, i.e. patients in good physical condition without much pain, able to enjoy almost normal lifestyle and thus, eligible for anticancer treatment for at least 2 months. The pancreatic cancer patients are “locally advanced” patients having tumor metastasis to the major vessels around pancreas or “Distant metastasis” patients with distant metastasis to liver, lung, bone, etc. ECOG performance status “0” refers to a patient who is asymptomatic, fully active, able to carry on all predisease activities without restriction with no pain and no problem for normal lifestyle, while “1” refers to a patient who is symptomatic but completely ambulatory with mile pain and a little problem for normal life. Anticancer (Gemcitabine and Erlotinib combo treatment) Regimen is as follows: 1,000 mg of Gemcitabine is injected once a week for three weeks (Day 1, Day 8, Day 15), and is not injected in the next one week (Day 22). Therefore, 1 cycle of anticancer treatment requires 1 month. 100 mg of Erlotinib (Tarceva) is administered once per day everyday orally. 1,000 mg of PLAG is also administered once per day orally, starting from 3 days before anticancer treatment until the last chemotherapy treatment. The PLAG treatment group and control group both completed two cycles of anticancer treatment. There is no difference among the control and PALG treatment groups in the amount or schedule of anticancer treatment.

[3] = test system: splenic nodules, primitive progenitor cells and megakaryocytes; assay: Colony forming units in spleen (CFUs) assay in heavily irradiated mice; format: in vivo; conditions: PLAG 50 mg/kg/d i.p. or p.o.
Method: In order to determine the in vivo effect of PLAG on the recovery of hematopoiesis, a CFUs assay is performed in heavily irradiated mice.

[4] = test system: C3; assay: C3 in culture supernatant of HepG2 cells, ELISA; format: cell-based, human; conditions: PLAG 1 to 100 μg/ml or S6I 10 and 100 μg/ml, IL-4 and TNF-α 1 hr, 18 hr at 37° C.
Method: The incubated HepG2 cell lines are treated with PLAG (1˜100 μg/ml), followed by IL-4 and TNF-α, reacted for 1 hour, incubated for 18 hours at 37° C. and the supernatant isolated. Quantitation of the amount of C3 in the cellular culture medium (supernatant) from HepG2 cells is performed by ELISA using a commercially available monoclonal antibody (mAb, R&D Systems) and the manufacture's protocol; the results are presented in FIG. 3. C3 is expressed spontaneously under in vitro culture condition using 10% FCS added to HepG2 cells incubated for 12 hr. The cells are treated with different doses of PLAG from 1 to 100 μg/ml (Panel A, Panel B) or 10 and 100 μg/ml of S6I (Panel C), reacted with IL-4 and TNF-α for 1 hr and then incubated for 18 hr at 37° C. Cellular viability is confirmed using the WST-1 assay (Panel A).

[5] = test system: Complement 3; assay: Clinical study: activity of PLAG on Complement 3 in healthy subjects; format: in vivo, human
Method: A clinical study is conducted in Gwandong University MyungJi Hospital Clinical Study Center in Republic of Korea with 27 healthy patients to study immune-modulating effect of PLAG. Volunteers are tested for 30 days in vivo as oral administer (500 mg of PLAG per day) under a legitimate clinical approval. Complement 3 is counted using C3 assay kit. The analysis result is shown in FIG. 7, and change of immunoactivity by the administration of PLAG in healthy subjects is shown in Table 8 (effect of PLAG supplementation on immune function of peripheral blood after 4-wk intervention). As shown in FIG. 7 and Table 8, the majority of those who consume PLAG for a month (twenty-six (26) subjects out of 27 patients) show decreased complement 3 (C3), while the control group, who are treated with soybean oil, show both increase and decrease of C3.

[6] = Gemcitabine and Erlotinib, PLAG 1,000 mg once per day orally, two cycles

With CCCCC/C=C\C/C=C\CCCCCCCC(=O)OC(COC(C)=O)COC(=O)CCCCCCCCCCCCCCC (racemic) [PLAG, 1-palmitoyl-2-linoleoyl-3-acetylglycerol] the neutrophil score ([1]; Gemcitabine 50 mg/kg with PLAG 50 mg/kg) was “improved significantly”, the survival rate ([1]; Gemcitabine with continued PLAG vs Gemcitabine alone) was “improved survival rate” and the “reduced neutrophil count following chemotherapy” value ([1]; Gemcitabine, Cyclophosphamide or Tamoxifen daily 3 weeks, PLAG 50 mg/kg daily 3 weeks) was “prevented”. For the same compound, the “Complement 3 activation by chemotherapeutic agents, blockage” value ([1]; Gemcitabine, Cyclophosphamide or Tamoxifen with PLAG) was “largely blocked”, the “activities and survival rate” value ([1]; Tamoxifen 50 mg/kg co-treated with PLAG 50 mg/kg vs Tamoxifen only) was “faster improvement of activities and survival rate” and the neutrophil count ([1]; cyclophosphamide with PLAG 50 mg/kg vs control group) was “improved significantly”. The “patients whose platelet number dropped to less than 25,000/μl” value [2, 6] was “no patient”, the “patients with platelet number decrease to less than 50,000/μl” value [2, 6] was “no patient” and the “patients with >70% decrease in platelet count” value ([2]; PLAG treatment group) was “none”. For the same compound, the “patients with neutrophil decrease to less than 500/μl” value ([2]; PLAG treatment group) was “none”, the “patients with neutrophil number decrease to less than 75%” value ([2]; PLAG treatment group) was “none and not one patient” and the “number of splenic nodules and numbers of primitive progenitor cells and megakaryocytes” value [3] was “marked increase”. The “expression of C3 (amount in supernatant, ELISA)” value [4] was “decreased dose-dependently”, the “decrease of average concentration of C3 in blood” value ([5]; after administration of PLAG, p value <0.001) was “about 10 mg/dL” and the “subjects showing decreased complement 3 (C3)” value ([5]; out of 27 patients, PLAG for a month) was 26 subjects.
